These results are taken from patent publication US20060235222A1, “Indole-derivative modulators of steroid hormone nuclear receptors” (ELI LILLY AND COMPANY, priority 2003, published 2006).

In experiment [1] the target is T1, human MR (Homo sapiens, UniProt P08235).
T1 construct: The full length human MR gene is cloned from a human kidney or human brain cDNA library; inferred from own knowledge of the pAcHLT vector (N); made in house; host or cells: Sf9 insect cells (baculovirus)
T1 sequence (P08235 1-984): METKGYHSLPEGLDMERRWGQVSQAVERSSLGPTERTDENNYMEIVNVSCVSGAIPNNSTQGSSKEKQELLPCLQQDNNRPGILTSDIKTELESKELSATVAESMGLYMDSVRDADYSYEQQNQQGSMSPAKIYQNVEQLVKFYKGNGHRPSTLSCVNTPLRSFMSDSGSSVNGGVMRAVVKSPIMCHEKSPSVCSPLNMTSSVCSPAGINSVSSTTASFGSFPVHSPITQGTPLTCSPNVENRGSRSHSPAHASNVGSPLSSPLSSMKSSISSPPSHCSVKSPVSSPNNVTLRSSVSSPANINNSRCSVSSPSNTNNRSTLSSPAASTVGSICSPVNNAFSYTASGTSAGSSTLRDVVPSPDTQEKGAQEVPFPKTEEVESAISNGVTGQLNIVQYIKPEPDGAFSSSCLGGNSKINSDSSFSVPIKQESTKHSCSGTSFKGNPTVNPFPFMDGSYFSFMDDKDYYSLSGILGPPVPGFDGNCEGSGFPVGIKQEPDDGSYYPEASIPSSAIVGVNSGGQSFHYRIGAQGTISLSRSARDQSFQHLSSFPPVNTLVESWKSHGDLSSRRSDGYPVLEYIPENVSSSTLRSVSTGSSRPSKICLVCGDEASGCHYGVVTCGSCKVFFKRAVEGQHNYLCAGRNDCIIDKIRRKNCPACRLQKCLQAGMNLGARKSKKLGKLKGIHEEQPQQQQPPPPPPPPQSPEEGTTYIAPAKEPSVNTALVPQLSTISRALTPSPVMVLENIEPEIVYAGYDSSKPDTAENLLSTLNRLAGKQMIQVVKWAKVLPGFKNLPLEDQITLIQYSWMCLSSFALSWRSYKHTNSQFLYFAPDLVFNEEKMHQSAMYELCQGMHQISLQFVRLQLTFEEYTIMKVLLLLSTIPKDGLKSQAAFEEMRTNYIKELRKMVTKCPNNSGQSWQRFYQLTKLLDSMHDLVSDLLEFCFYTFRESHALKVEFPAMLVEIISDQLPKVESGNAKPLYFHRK
The experiment is described as follows: Mineralocorticoid Receptor Binding Assay (Method 1), [3H]-aldosterone competition. The note with it: 0.5 nM [3H]-aldosterone, human MR expressed in Sf9 cells. The protocol:
Mineralocorticoid Receptor Binding Assay (Method 1):
The full length human MR gene is cloned from a human kidney or human brain cDNA library. […] The PCR reaction is performed in a final volume of 50 μl containing about 1 μl of a 50× stock solution of polymerase; about 1 μl of a 50× stock solution of dNTP; about 5 μl of an appropriate PCR buffer; about 1 μl of each primer; about 5 μl of a H. kidney or H. brain cDNA library; and about 36 μl of water. The reaction is allowed to denature for about 30 seconds at 95 degrees Celsius, anneal for about 30 seconds at 55 degrees Celsius, and extend for about 5 minutes at 72 degrees Celsius, the sequence being repeated for a total of about 35 cycles. […] To extract the cDNA product from the agarose gel, the QIAEX II Gel Extraction protocol (QIAGEN, Inc.) is employed according to the manufacturer's instructions. Following extraction, the MR cDNA is cloned into an appropriate cloning vector (Zero Blunt TOPO PCR Cloning Kit (Invitrogen, Inc.) and a pAcHLT-baculovirus transfer vector (B.D./Pharminogen), then expressed in SF9 insect cells, essentially according to manufacturer's instructions. Sf9 cells are grown at a scale where gram quantity cell pellets are obtained for subsequent use in the MR binding assay. Harvested cell pellets are lysed by repeated freeze-thaw cycles (about 4) in a suitable lysis buffer then centrifuged at about 1×10^3 G (with the supernatant being saved for future assays).
MR binding assays are performed in a final total volume of about 250 μl containing about 20-25 μg of protein and 0.5 nM of [^3H]-aldosterone plus varying concentrations of test compound or vehicle. The assay binding buffer consists of 30 mM sodium molybdate, 30 mM of TRIS-HCl, 5 mM sodium phosphate, 5 mM sodium pyrophosphate, and about 10% glycerol, pH=7.5.
Incubations are carried out at 4 degrees Celsius with shaking for about 16 hours. 200 μl aliquots of each incubation are filtered onto Millipore HA 0.45 micron 96-well filter plates, pre-moistened with cold 30 mM TRIS-HCl. The filter plates are suctioned dry with vacuum and immediately washed 3× with cold 30 mM TRIS-HCl. The plates are then punched out and the amount of receptor-ligand complex is determined by liquid scintillation counting using 4 ml of Ready Protein Plus™ liquid scintillation cocktail.

Experiment [2] concerns the target T2, glucocorticoid receptor (Homo sapiens, UniProt P04150).
T2 construct: containing 50-200 ug of A549 cell extract and 1.86 nM; host or cells: A549 human lung epithelial cells
T2 sequence (P04150 1-777): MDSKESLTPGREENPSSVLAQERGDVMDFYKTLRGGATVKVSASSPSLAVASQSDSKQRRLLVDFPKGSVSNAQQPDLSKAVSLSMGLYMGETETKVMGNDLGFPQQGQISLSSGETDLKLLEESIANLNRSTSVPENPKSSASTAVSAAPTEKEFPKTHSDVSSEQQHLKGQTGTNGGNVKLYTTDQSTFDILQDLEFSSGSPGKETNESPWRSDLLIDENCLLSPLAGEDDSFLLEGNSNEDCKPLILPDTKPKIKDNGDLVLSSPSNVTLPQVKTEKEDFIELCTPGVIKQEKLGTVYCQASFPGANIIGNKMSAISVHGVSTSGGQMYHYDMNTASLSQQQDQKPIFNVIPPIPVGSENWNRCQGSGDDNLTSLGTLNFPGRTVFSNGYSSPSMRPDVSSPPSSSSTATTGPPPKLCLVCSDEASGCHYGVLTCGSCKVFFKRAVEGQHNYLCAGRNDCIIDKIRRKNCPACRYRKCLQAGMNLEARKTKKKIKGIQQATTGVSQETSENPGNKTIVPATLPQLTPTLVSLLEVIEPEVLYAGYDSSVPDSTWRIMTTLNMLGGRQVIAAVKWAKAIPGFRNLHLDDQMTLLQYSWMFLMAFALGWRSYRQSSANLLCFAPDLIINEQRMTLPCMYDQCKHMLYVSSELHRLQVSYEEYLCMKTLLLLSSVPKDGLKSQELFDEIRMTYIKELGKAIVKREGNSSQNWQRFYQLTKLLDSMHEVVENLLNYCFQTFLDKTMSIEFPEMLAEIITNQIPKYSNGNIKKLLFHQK
In words: Glucocorticoid Receptor Binding Assay (Method 1), [3H]-dexamethasone competition, A549 cell extract. The conditions noted are these: 1.86 nM [3H]-dexamethasone, read-out: GR Ki (nM) Method 1. How it is done: Glucocorticoid Receptor Binding Assay (Method 1):
A549 human lung epithelial cells (ATCC) are grown at a scale where gram quantity cell pellets are obtained. Harvested cell pellets are washed twice in cold phosphate buffered saline, centrifuged, and resuspended in cold assay binding buffer. The assay binding buffer consists of 10% glycerol, 50 mM Tris-HCl (pH7.2), 75 mM sodium chloride, 1.5 mM magnesium chloride, 1.5 mM EDTA, and 10 mM sodium molybdate. Cell suspensions were lysed via sonication, centrifuged, and the “extract” supernatant is snap frozen and stored at −80 C until needed.
Incubations are carried out at 4 degrees Celsius for 16 hours. After incubation, 70 ul of 3× dextran-coated charcoal solution is added to each reaction, mixed, and incubated for 8 minutes at RT. 3×-dextran-coated charcoal solution consists of 250 ml assay binding buffer, 3.75 g Norit A charcoal (Sigma), and 1.25 g dextran T-70 (Amersham). Charcoal/unbound radioligand complexes are removed by centrifugation of the plate and 140 ul of supernatant from each well is transferred to another 96 well Optiplate (Packard Instruments). 200 ul of Microscint-20 scinillant (Packard Instruments) is added to each well and amount of receptor bound radioligand is determined using Packard Instruments TopCount instrument.

For `CCC(C)(c1ccc(OC)cc1)c1c[nH]c2c(C)cccc12` (stereo not drawn) [Example 31, 3-[1-(4-Methoxy-phenyl)-1-methyl-propyl]-7-methyl-1H-indole], the Ki in experiment [1] and in experiment [2] was less than 500 nM throughout.
On to `CC(C)(c1ccc(F)cc1)c1c[nH]c2c(NS(C)(=O)=O)cccc12` [Example 76, N-{3-[1-(4-Fluoro-phenyl)-1-methyl-ethyl]-1H-indol-7-yl}-methanesulfonamide], for which the Ki in experiment [1] and in experiment [2] was less than 500 nM throughout.
Consider `CCC(CC)(c1ccc2c(c1)CCO2)c1c[nH]c2c(NS(C)(=O)=O)cccc12` [Example 3, N-{3-[1-(2,3-Dihydro-benzofuran-5-yl)-1-ethyl-propyl]-1H-indol-7-yl}-methanesulfonamide], for which the inhibition constant Ki in experiment [1] and in experiment [2] was less than 500 nM each time.
`CC(C)(c1cc2ccccc2s1)c1c[nH]c2c(NS(C)(=O)=O)cccc12` [Example 13, N-[3-(1-Benzo[b]thiophen-2-yl-1-methyl-ethyl)-1H-indol-7-yl]-methanesulfonamide]: the inhibitory constant (Ki) in experiment [1] was less than 500 nM; in experiment [2], less than 1000 nM.
For `CCC(CC)(c1ccc(SC)cc1)c1c[nH]c2c(NS(C)(=O)=O)cccc12` [Example 8, N-{3-[1-Ethyl-1-(4-methylsulfanyl-phenyl)-propyl]-1H-indol-7-yl}-methanesulfonamide] the same measures were less than 500 nM and less than 500 nM.
With `CCCC(C)(c1ccccc1)c1c[nH]c2c(NS(C)(=O)=O)cccc12` (stereo not drawn) [Example 70, N-[3-(1-Methyl-1-phenyl-butyl)-1H-indol-7-yl]-methanesulfonamide], the inhibition constant Ki in experiment [1] and in experiment [2] was less than 500 nM throughout.
In the case of `CCC(CC)(c1ccc(O)cc1)c1c[nH]c2c(NS(C)(=O)=O)cccc12` [Example 18, N-{3-[1-Ethyl-1-(4-hydroxy-phenyl)-propyl]-1H-indol-7-yl}-methanesulfonamide], the Ki in experiment [1] and in experiment [2] was less than 500 nM throughout.
With `CCC(CC)(c1ccc(C)c(C)c1)c1c[nH]c2c(NS(C)(=O)=O)cccc12` [Example 58, N-{3-[1-(3,4-Dimethyl-phenyl)-1-ethyl-propyl]-1H-indol-7-yl}-methanesulfonamide], the Ki in experiment [1] and in experiment [2] was less than 500 nM each time.
For `CCC(CC)(c1ccc(OCc2ccccc2)cc1)c1c[nH]c2c(NS(C)(=O)=O)cccc12` [Example 17, N-{3-[1-(4-Benzyloxy-phenyl)-1-ethyl-propyl]-1H-indol-7-yl}-methanesulfonamide], the Ki in experiment [1] and in experiment [2] was less than 500 nM in each case.
On to `CCc1cccc2c(C(C)(c3ccc(O)cc3)c3ccc(F)cc3)c[nH]c12` (stereo not drawn) [Example 27, 4-[1-(7-Ethyl-1H-indole-3-yl)-1-(4-fluoro-phenyl)-ethyl]-phenol], for which the inhibition constant (Ki) in experiment [1] was less than 500 nM; in experiment [2], less than 1000 nM.
For `CCC(CC)(c1ccccc1C)c1c[nH]c2c(NS(C)(=O)=O)cccc12` [Example 67, N-[3-(1-Ethyl-1-o-tolyl-propyl)-1H-indol-7-yl]-methanesulfonamide] the same measures were less than 500 nM and less than 500 nM.
For `CCCC(C)(c1cccc(OC)c1)c1c[nH]c2c(NS(C)(=O)=O)cccc12` (stereo not drawn) [Example 46, N-{3-[1-(3-Methoxy-phenyl)-1-methyl-butyl]-1H-indol-7-yl}-methanesulfonamide] the same measures were less than 500 nM and less than 500 nM.
For `CCCC(C)(c1ccc(OC(F)(F)F)cc1)c1c[nH]c2c(N)cccc12` (stereo not drawn) [Example 35] the same measures were less than 500 nM and less than 10000 nM.
As for `CCCC(C)(c1ccc(OC)cc1)c1c[nH]c2c(N)cccc12` (stereo not drawn) [Example 50, 3-[1-(4-Methoxy-phenyl)-1-methyl-butyl]-1H-indol-7-ylamine], the inhibitory constant (Ki) in experiment [1] and in experiment [2] was less than 500 nM each time.
As to `CCC(CC)(c1ccccc1)c1c[nH]c2c(NS(C)(=O)=O)cccc12` [Example 61, N-[3-(1-Ethyl-1-phenyl-propyl)-1H-indol-7-yl]-methanesulfonamide], the Ki in experiment [1] and in experiment [2] was less than 500 nM throughout.
`CCCC(CCC)(c1ccc(OC)cc1)c1c[nH]c2c(NS(C)(=O)=O)cccc12` [Example 69, N-{3-[1-(4-Methoxy-phenyl)-1-propyl-butyl]-1H-indol-7-yl}-methanesulfonamide]: the inhibition constant Ki in experiment [1] and in experiment [2] was less than 500 nM each time.
Regarding `CC(c1ccccc1)(c1ccccc1)c1cn(CC(=O)O)c2ccccc12` [Example 42, [3-(1,1-Diphenyl-ethyl)-indol-1-yl]-acetic acid], the Ki in experiment [1] and in experiment [2] was less than 10000 nM in each case.
Take `CCCC(C)(c1ccc(OC)cc1)c1c[nH]c2c(NS(C)(=O)=O)cccc12` (stereo not drawn) [Example 45, N-{3-[1-(4-Methoxy-phenyl)-1-methyl-butyl]-1H-indol-7-yl}-methanesulfonamide]: the Ki in experiment [1] and in experiment [2] was less than 500 nM throughout.
